Results reported in patent US9663526B2, “Aminopyrimidinyl compounds” (Pfizer Inc., priority 2014, dated 2017).
Read-outs that look alike come from different tables or passages of the source.

What was measured:
[1] = tested on: interferon alpha signalling (TYK2 and JAK1), STAT3 phosphorylation; experiment: Human whole blood INFα induced STAT3 phosphorylation assay; type: cell-based; details: compound 60 minutes at 37° C., IFNα 5000 U/ml for 15 minutes, pSTAT3 in lymphocyte population by flow cytometry, read-out: HWB IFN alpha IC50;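 further: flow cytometry with anti-pSTAT3 staining, signal as percent-positive × mean fluorescence, baseline from unstimulated wells, 11-point dilution series, IC50 as inhibition of pSTAT3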
[2] = molecular target: recombinant human kinase domain of JAK1 (Homo sapiens (Human), UniProt P23458); experiment: JAK Caliper enzyme assay at 1 mM ATP (JAK1); type: biochemical;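 further: microfluidic mobility-shift readout of synthetic fluorescent peptide phosphorylation, percent product converted from peak height, inhibition relative to DMSO-only wells as uninhibited baseline, room temperature incubation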
Sequence of recombinant human kinase domain of JAK1 (P23458 875-1153): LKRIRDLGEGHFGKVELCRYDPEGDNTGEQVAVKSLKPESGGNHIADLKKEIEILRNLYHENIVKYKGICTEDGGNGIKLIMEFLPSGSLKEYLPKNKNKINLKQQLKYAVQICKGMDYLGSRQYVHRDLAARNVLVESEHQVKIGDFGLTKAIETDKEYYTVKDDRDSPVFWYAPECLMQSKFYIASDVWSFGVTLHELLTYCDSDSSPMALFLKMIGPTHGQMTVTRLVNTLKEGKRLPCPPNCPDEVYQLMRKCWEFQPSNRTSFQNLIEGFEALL

[3] = molecular target: recombinant human kinase domain of JAK3 (Homo sapiens (Human), UniProt P52333); experiment: JAK Caliper enzyme assay at 1 mM ATP (JAK3); type: biochemical;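 further: microfluidic mobility-shift readout of synthetic peptide phosphorylation, percent product converted from peak heights, normalized to DMSO-only wells as uninhibited baseline, room temperature incubation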
Sequence of recombinant human kinase domain of JAK3 (P52333 822-1111): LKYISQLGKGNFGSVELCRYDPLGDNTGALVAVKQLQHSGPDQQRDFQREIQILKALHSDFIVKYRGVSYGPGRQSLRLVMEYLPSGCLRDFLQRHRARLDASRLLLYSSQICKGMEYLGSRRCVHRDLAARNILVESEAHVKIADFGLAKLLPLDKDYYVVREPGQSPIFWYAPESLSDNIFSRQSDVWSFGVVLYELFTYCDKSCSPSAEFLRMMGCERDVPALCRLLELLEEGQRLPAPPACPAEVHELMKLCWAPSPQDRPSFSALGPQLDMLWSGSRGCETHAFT

[4] = molecular target: recombinant human kinase domain of TYK2 (Homo sapiens (Human), UniProt P29597); experiment: JAK Caliper enzyme assay at 1 mM ATP (TYK2); type: biochemical;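 further: microfluidic mobility-shift readout of synthetic peptide phosphorylation by TYK2, tuned to 20–30% conversion at room temperature, reaction stopped with EDTA, DMSO-only wells as uninhibited baseline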
Sequence of recombinant human kinase domain of TYK2 (P29597 897-1176): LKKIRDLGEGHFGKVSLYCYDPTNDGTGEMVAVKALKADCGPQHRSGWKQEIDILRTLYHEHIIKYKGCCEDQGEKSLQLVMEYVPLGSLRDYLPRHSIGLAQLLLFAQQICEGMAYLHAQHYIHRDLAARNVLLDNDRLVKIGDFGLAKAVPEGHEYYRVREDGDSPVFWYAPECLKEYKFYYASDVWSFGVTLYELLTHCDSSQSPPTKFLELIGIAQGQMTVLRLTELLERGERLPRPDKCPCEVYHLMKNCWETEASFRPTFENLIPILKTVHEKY

[5] = molecular target: recombinant human kinase domain of JAK2 (Homo sapiens (Human), UniProt O60674); experiment: JAK Caliper enzyme assay at 1 mM ATP (JAK2); type: biochemical;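 further: microfluidic mobility-shift read-out of fluorescent synthetic peptide phosphorylation, percent product converted from peak heights, room temperature, DMSO-only wells as uninhibited baseline, inhibition curve fit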
Sequence of recombinant human kinase domain of JAK2 (O60674 849-1124): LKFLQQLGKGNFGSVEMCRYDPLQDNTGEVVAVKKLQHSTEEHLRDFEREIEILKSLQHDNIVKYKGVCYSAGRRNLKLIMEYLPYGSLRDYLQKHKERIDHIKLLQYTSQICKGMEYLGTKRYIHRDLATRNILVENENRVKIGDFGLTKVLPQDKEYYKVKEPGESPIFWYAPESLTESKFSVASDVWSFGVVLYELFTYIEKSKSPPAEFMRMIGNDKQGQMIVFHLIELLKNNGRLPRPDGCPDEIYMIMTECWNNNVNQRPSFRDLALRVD

[6] = 1 mM ATP, read-out: IC50 (nM) JAK1
[7] = 1 mM ATP, read-out: IC50 (nM) JAK3
[8] = 1 mM ATP, read-out: IC50 (nM) TYK2

For `C[C@@H](CO)c1ccc(Nc2nccc(N3C[C@H]4CC[C@@H](C3)N4C(=O)[C@@H]3CC3(F)F)n2)cn1` (single isomer, unassigned) [Example 11], the IC50 [1] was 134 nM, the IC50 [2, 6] was 139 nM and the IC50 [3, 7] was > 10000 nM. The IC50 [4] was 40 nM and the IC50 [5] was 141 nM.
`C[C@H](CO)c1ccc(Nc2nccc(N3C[C@H]4CC[C@@H](C3)N4C(=O)[C@@H]3CC3(F)F)n2)cn1` (single isomer, unassigned) [Example 12] was tested, and the IC50 [1] was 88 nM, the IC50 [2, 6] was 79 nM and the IC50 [3, 7] was > 10000 nM. The IC50 [4] was 28 nM and the IC50 [5] was 80 nM.
Molecule `CNC(=O)c1ncc(Nc2nccc(N3C[C@H]4CC[C@@H](C3)N4C(=O)[C@@H]3CC3(F)F)n2)cc1C` (single isomer, unassigned) [Example 33] has an IC50 [1] of 122 nM, an IC50 [2, 6] of 62 nM and an IC50 [3, 7] of 9280 nM. It also gave an IC50 [4, 8] of 15 nM and an IC50 [5] of 116 nM.
For `CNC(=O)c1ncc(Nc2nccc(N3C[C@H]4CC[C@@H](C3)N4[C@H]3C[C@@H](C#N)C3)n2)cc1C` (single isomer, unassigned) [Example 61], the IC50 [1] was 135 nM, the IC50 [2] was 31 nM and the IC50 [3] was 4080 nM. The IC50 [4, 8] was 18 nM and the IC50 [5] was 44 nM.
`CCNC(=O)N1[C@@H]2CC[C@H]1CN(c1ccnc(Nc3cn[nH]c3)n1)C2` [Example 5, (1R,5S)—N-ethyl-3-[2-(1H-pyrazol-4-ylamino)pyrimidin-4-yl]-3,8-diazabicyclo[3.2.1]octane-8-carboxamide] was tested, and the IC50 [1] was 105 nM, the IC50 [3, 7] was > 10000 nM and the IC50 [5] was 477 nM.
In the case of `CNC(=O)c1ncc(Nc2nccc(N3C[C@H]4CC[C@@H](C3)N4C(=O)C3CC3)n2)cc1C` [Example 6, 5-({4-[(1R,5S)-8-(cyclopropylcarbonyl)-3,8-diazabicyclo[3.2.1]oct-3-yl]pyrimidin-2-yl}amino)-N,3-dimethylpyridine-2-carboxamide], the IC50 [1] is reported as 232 nM, the IC50 [2, 6] is reported as 337 nM and the IC50 [3, 7] is reported as > 10000 nM. The IC50 [4, 8] was 36 nM and the IC50 [5] was 754 nM.
With `CNC(=O)c1ncc(Nc2nccc(N3C[C@H]4CC[C@@H](C3)N4C(=O)[C@@H]3CC3(F)F)n2)cc1Cl` [Example 10, 3-chloro-5-({4-[(1R,5S)-8-{[(1S)-2,2-difluorocyclopropyl]carbonyl}-3,8-diazabicyclo[3.2.1]oct-3-yl]pyrimidin-2-yl}amino)-N-methylpyridine-2-carboxamide] the IC50 [1] was 439 nM, the IC50 [2, 6] was 171 nM and the IC50 [3, 7] was > 10000 nM. For the same molecule, the IC50 [4, 8] was 22 nM and the IC50 [5] was 367 nM.
For `CCNC(=O)c1ncc(Nc2nccc(N3C[C@H]4CC[C@@H](C3)N4C(=O)C3CC3)n2)cc1C` [Example 14, 5-({4-[(1R,5S)-8-(cyclopropylcarbonyl)-3,8-diazabicyclo[3.2.1]oct-3-yl]pyrimidin-2-yl}amino)-N-ethyl-3-methylpyridine-2-carboxamide], the IC50 [1] was 287 nM, the IC50 [3, 7] was > 10000 nM and the IC50 [4, 8] was 79 nM.
`O=C([C@@H]1CC1(F)F)N1[C@@H]2CC[C@H]1CN(c1ccnc(Nc3cnc(CCO)c(Cl)c3)n1)C2` [Example 18, [(1R,5S)-3-(2-{[5-chloro-6-(2-hydroxyethyl)pyridin-3-yl]amino}pyrimidin-4-yl)-3,8-diazabicyclo[3.2.1]oct-8-yl][(1S)-2,2-difluorocyclopropyl]methanone] was tested, and the IC50 [1] was 338 nM, the IC50 [2, 6] was 352 nM and the IC50 [3, 7] was > 10000 nM. It also gave an IC50 [4, 8] of 62 nM and an IC50 [5] of 331 nM.
For `O=C([C@@H]1CC1(F)F)N1[C@@H]2CC[C@H]1CN(c1ccnc(Nc3cnc(CCO)c(F)c3)n1)C2` [Example 19, [(1S)-2,2-difluorocyclopropyl][(1R,5S)-3-(2-{[5-fluoro-6-(2-hydroxyethyl)pyridin-3-yl]amino}pyrimidin-4-yl)-3,8-diazabicyclo[3.2.1]oct-8-yl]methanone], the IC50 [1] was 238 nM, the IC50 [2, 6] was 463 nM and the IC50 [3, 7] was > 10000 nM. For the same molecule, the IC50 [4, 8] was 52 nM and the IC50 [5] was 402 nM.
Molecule `O=C([C@@H]1CC1(F)F)N1[C@@H]2CC[C@H]1CN(c1ccnc(Nc3cnc(OCCO)c(Cl)c3)n1)C2` [Example 23, [(1R,5S)-3-(2-{[5-chloro-6-(2-hydroxyethoxy)pyridin-3-yl]amino}pyrimidin-4-yl)-3,8-diazabicyclo[3.2.1]oct-8-yl][(1S)-2,2-difluorocyclopropyl]methanone] has an IC50 [1] of 428 nM.
Work on `CCn1cc(Nc2nccc(N3C[C@H]4CC[C@@H](C3)N4C(=O)[C@@H]3C[C@H]3C#N)n2)cn1` [Example 24, (1R,2R)-2-{[(1R,5S)-3-{2-[(1-ethyl-1H-pyrazol-4-yl)amino]pyrimidin-4-yl}-3,8-diazabicyclo[3.2.1]oct-8-yl]carbonyl}cyclopropanecarbonitrile] yielded an IC50 [1] of 43 nM, an IC50 [2, 6] of 13 nM and an IC50 [3, 7] of 4990 nM. It also gave an IC50 [5] of 67 nM.
In the case of `CNC(=O)c1ncc(Nc2nccc(N3C[C@H]4CC[C@@H](C3)N4C(=O)[C@@H]3C[C@H]3C#N)n2)cc1C` [Example 32, 5-({4-[(1R,5S)-8-{[(1R,2R)-2-cyanocyclopropyl]carbonyl}-3,8-diazabicyclo[3.2.1]oct-3-yl]pyrimidin-2-yl}amino)-N,3-dimethylpyridine-2-carboxamide], the IC50 [1] is reported as 115 nM, the IC50 [3, 7] is reported as > 10000 nM and the IC50 [5] is reported as 140 nM.
For `Cc1cc(Nc2nccc(N3C[C@H]4CC[C@@H](C3)N4C(=O)[C@@H]3CC3(F)F)n2)cnc1C(N)=O` [Example 35, 5-({4-[(1R,5S)-8-{[(1S)-2,2-difluorocyclopropyl]carbonyl}-3,8-diazabicyclo[3.2.1]oct-3-yl]pyrimidin-2-yl}amino)-3-methylpyridine-2-carboxamide], the IC50 [1] was 90 nM, the IC50 [2, 6] was 170 nM and the IC50 [3, 7] was > 10000 nM. It also gave an IC50 [5] of 337 nM.
With `CNC(=O)c1ncc(Nc2nccc(N3C[C@H]4CC[C@@H](C3)N4C(=O)[C@H]3C[C@@H]3F)n2)cc1C` [Example 44, 5-({4-[(1R,5S)-8-{[(1R,2S)-2-fluorocyclopropyl]carbonyl}-3,8-diazabicyclo[3.2.1]oct-3-yl]pyrimidin-2-yl}amino)-N,3-dimethylpyridine-2-carboxamide] the IC50 [1] was 562 nM, the IC50 [2, 6] was 475 nM and the IC50 [3, 7] was > 10000 nM. For the same molecule, the IC50 [5] was 854 nM.
In the case of `CNC(=O)c1ncc(Nc2nccc(N3C[C@H]4CC[C@@H](C3)N4C(=O)[C@@H]3C[C@H]3F)n2)cc1C` [Example 45, 5-({4-[(1R,5S)-8-{[(1S,2R)-2-fluorocyclopropyl]carbonyl}-3,8-diazabicyclo[3.2.1]oct-3-yl]pyrimidin-2-yl}amino)-N,3-dimethylpyridine-2-carboxamide], the IC50 [1] is reported as 110 nM, the IC50 [2, 6] is reported as 46 nM and the IC50 [3, 7] is reported as 7400 nM. For the same molecule, the IC50 [5] was 100 nM.
Work on `O=C([C@@H]1CC1(F)F)N1[C@@H]2CC[C@H]1CN(c1ccnc(Nc3cn[nH]c3)n1)C2` [Example 51, ((1R,5S)-3-(2-((1H-pyrazol-4-yl)amino)pyrimidin-4-yl)-3,8-diazabicyclo[3.2.1]octan-8-yl)((S)-2,2-difluorocyclopropyl)methanone] yielded an IC50 [1] of 20 nM, an IC50 [2, 6] of 13 nM and an IC50 [3, 7] of 8610 nM. It also gave an IC50 [5] of 97 nM.
Work on `Cn1cc(Nc2nccc(N3C[C@H]4CC[C@@H](C3)N4Cc3ccns3)n2)cn1` [Example 55, N-(1-methyl-1H-pyrazol-4-yl)-4-[(1R,5S)-8-(1,2-thiazol-5-ylmethyl)-3,8-diazabicyclo[3.2.1]oct-3-yl]pyrimidin-2-amine] yielded an IC50 [1] of 168 nM, an IC50 [2, 6] of 35 nM and an IC50 [3, 7] of 8620 nM. The IC50 [5] was 221 nM.
In the case of `Cn1cc(Nc2nccc(N3C[C@H]4CC[C@@H](C3)N4Cc3cnoc3)n2)cn1` [Example 58, N-(1-methyl-1H-pyrazol-4-yl)-4-[(1R,5S)-8-(1,2-oxazol-4-ylmethyl)-3,8-diazabicyclo[3.2.1]oct-3-yl]pyrimidin-2-amine], the IC50 [1] is reported as 158 nM, the IC50 [2, 6] is reported as 267 nM and the IC50 [3, 7] is reported as > 10000 nM. The IC50 [4, 8] was 73 nM.
Molecule `Cn1cc(Nc2nccc(N3C[C@H]4CC[C@@H](C3)N4C3(CC#N)CN(S(C)(=O)=O)C3)n2)cn1` [Example 83, {3-[(1R,5S)-3-{2-[(1-methyl-1H-pyrazol-4-yl)amino]pyrimidin-4-yl}-3,8-diazabicyclo[3.2.1]oct-8-yl]-1-(methylsulfonyl)azetidin-3-yl}acetonitrile] has an IC50 [1] of 85 nM and an IC50 [3, 7] of 1240 nM.
With `CNC(=O)c1ncc(Nc2nccc(N3C[C@H]4CC[C@@H](C3)N4C(=O)NCC#N)n2)cc1C` [Example 90, (1R,5S)—N-(cyanomethyl)-3-(2-{[5-methyl-6-(methylcarbamoyl)pyridin-3-yl]amino}pyrimidin-4-yl)-3,8-diazabicyclo[3.2.1]octane-8-carboxamide] the IC50 [1] was 247 nM, the IC50 [2, 6] was 17 nM and the IC50 [3, 7] was 4170 nM.
Molecule `Cc1cnc(Nc2ccc(OCCO)nc2)nc1N1C[C@H]2[C@@H](C)[C@@]2(NC(=O)[C@H]2C[C@@H]2C#N)C1` [Example 98, (1S,2S)-2-cyano-N-[(1S,5R,6R)-3-(2-{[6-(2-hydroxyethoxy)pyridin-3-yl]amino}-5-methylpyrimidin-4-yl)-6-methyl-3-azabicyclo[3.1.0]hex-1-yl]cyclopropanecarboxamide] has an IC50 [1] of 246 nM, an IC50 [2, 6] of 13 nM and an IC50 [3, 7] of 2600 nM. It also gave an IC50 [5] of 147 nM.
`Cn1cc(Nc2ncc(F)c(N3C[C@@]4(CO)C[C@@]4(NC(=O)[C@@H]4CC4(F)F)C3)n2)cn1` [Example 109, (1S)-2,2-difluoro-N-[(1S,5S)-3-{5-fluoro-2-[(1-methyl-1H-pyrazol-4-yl)amino]pyrimidin-4-yl}-5-(hydroxymethyl)-3-azabicyclo[3.1.0]hex-1-yl]cyclopropanecarboxamide] was tested, and the IC50 [1] was 507 nM, the IC50 [2, 6] was 211 nM and the IC50 [3, 7] was > 10000 nM. The IC50 [4, 8] was 51 nM.
